# Source: patent publication US20250082787A1, “ALGINIC ACID-BASED INJECTABLE HYDROGEL SYSTEM” (National Cancer Center, priority 2018, published 2025)
# Tests used:
# [1] = Persistence of fluorescence after subcutaneous injection in nude mouse (IVIS fluorescence image); type: in vivo
# Description: In order to see the fluorescence persistence of the alginic acid hydrogel containing indocyanine green-human serum albumin in a nude mouse, it was injected in the form of a gel subcutaneously to the nude mouse through a dual syringe, and then the labeling performance over time was photographed with a fluorescent image device (IVIS Lumina XR, Xenogen Corporation-Caliper, CA, USA). Three solutions to be injected into the animal model were prepared in the same manner as in Preparation Examples 7 to 9. FIG. 7 is a schematic diagram of injecting an alginic acid hydrogel containing indocyanine green-human serum albumin subcutaneously to a nude mouse using a dual syringe.
# The solutions of Preparation Examples 7 to 9 were injected subcutaneously to a nude mouse, respectively so that the total volume was 100 μL using a dual syringe.
# [2] = 2 to 100 μM in distilled water, λex=720 nm
# Description: Before developing a surgical marker using indocyanine green and human serum albumin conjugate, in order to determine the appropriate concentration of indocyanine green and human serum albumin conjugate, the two substances were mixed by each concentration to observe change in fluorescence (λex=720 nm) and absorbance.
# 3 mL of distilled water was added to 1.5 mg of indocyanine green (ICG, purchased from Sigma-Aldrich) and dissolved by stirring to prepare a high concentration of indocyanine green solution. Distilled water was added to the high concentration of indocyanine green solution and mixed through stirring to prepared a 2 to 100 μM solution.
compound,measurement,setting,value
CC1(C)C(/C=C/C=C/C=C/C=C2\N(CCCCS(=O)(=O)O)c3ccc4ccccc4c3C2(C)C)=[N+](CCCCS(=O)(=O)[O-])c2ccc3ccccc3c21 [indocyanine green],time fluorescence was maintained / emitted (FIG. 8),"[1]; 100 μL subcutaneous, nude mouse, λex=780 nm, λem=845 nm",about one
same,time at which fluorescence (ROI value) was greatest,"[1]; FIG. 10A, nude mouse",6 h
same,time in which fluorescence signals almost disappeared,"[1]; FIG. 10C, nude mouse",48 h
same,fluorescence remaining compared to immediately after injection,"[1]; ROI value, when one day passed",16%
same,time after which injected solution spread and disappeared at injection site (FIG. 9),"[1]; appearance of injected site, nude mouse",about 24 hours
same,concentration up to which maximum fluorescence intensity increased,[2],about 20 μM
